Test results published in patent US11959102B2, “Augmentation of fibroblast regenerative activity” (Figene, LLC, priority 2017, dated 2024).

Tested on: Foreskin fibroblasts
Experiment: VEGF production by cultured fibroblasts, ELISA of culture media
Format: cell-based
Conditions: media after 24 hours of culture
Method: (§1) Foreskin fibroblasts purchased from ATCC where cultured in T-75 flasks using Fibroblast Basal Media from ATCC. When cells reached 75% confluence, exposure to: a) Normoxia; b) hypoxia (2% oxygen for 4 hours); c) carbon monoxide (250 ppm) for 4 hours; or d) hypoxia followed by carbon monoxide. Cells were re-plated on 96 well plates, flat bottomed, by trypsinization. Concentration of re-plated cells was 0, 10,000, 20,000 and 40,000 cells per well. Culture media was extracted after 24 hours of culture and analyzed for VEGF production using ELISA (R&D Systems). […] No VEGF production was observed from Normoxic Control fibroblasts.
as §1, with “simultaneously as” for “followed by”, “monoxide” for “monoxide.”, “replated” for “re-plated”

[C-]#[O+] [carbon monoxide]
VEGF production (hypoxia (2% oxygen for 4 hours) followed by carbon monoxide (250 ppm, 4 hours), FIG. 1): synergistic increase
VEGF production (hypoxia (2% oxygen for 4 hours) simultaneously as carbon monoxide (250 ppm), FIG. 2): synergistic increase
